The text below walks through data of US11111219B2, “Polysubstituted pyrimidines inhibiting the formation of prostaglandin E2, a method of production thereof and use thereof” (USTAV ORGANICKE CHEMIE A BIOCHEMIE AV CR, V.V.I., priority 2017, dated 2021).

What all share (type): cell-based
The subject of one data set is mouse peritoneal cells. As to the kind of experiment: Cell viability, lactate dehydrogenase (LDH) assay. The conditions noted are these: compound 50 μmol·l^−1, 5 hours. The protocol: Cell viability was determined using the lactate dehydrogenase assay (LDH kit, Sigma-Aldrich). The mouse peritoneal cells were cultured for 5 hours in the presence of tested compounds applied at the concentration of 50 μmol.l^−1. The effects of pyrimidines were compared with the viability of cells cultured in the absence of the compounds. The later was taken as a control 100% viability.

Another data set has as its system biosynthesis of PGE2. Briefly: Production of PGE2 in LPS-stimulated mouse peritoneal cells. As to conditions: for activity at 50 µM: Mus musculus, 5 h, compound 50 μmol·l^−1, with LPS 10 ng/ml, 5 hours, LPS alone = 100%, low values = strong inhibition, read-out: PGE2 remaining activity in % of LPS response (mean ± SEM); for IC50: concentration-effect experiments, 0.0004 to 25 μmol·l^−1, mouse peritoneal cells, LPS, read-out: PGE2 IC50, and 95% limits of confidence (in parentheses). The protocol: Production of PGE2 was assayed in vitro in cultures of mouse peritoneal cells. The cells (2×10^6/mL) were stimulated with bacterial lipopolysaccharide (LPS, 10 ng/ml). Tested pyrimidine derivatives were applied at the concentration of 50 μmol.l^−1, concomitantly with LPS. Amount of PGE2 in cell supernatants was determined 5 hours after stimulation using the commercially available kit (R&D Systems). The effects of pyrimidines on PGE2 production were evaluated in percent of control values, i.e. those found after the action of LPS alone (100%). The data in Table 2 show the remaining activity; the low values thus indicate strong inhibition of PGE2 formation.
The concentrations required to inhibit PGE2 biosynthesis by 50% (so-called IC50) were determined by the analysis of concentration-effect experiments. For this purpose, the compounds were applied within the range of 0.0004 μmol.l^−1 až 25 μmol.l^−1.

Data set [1] concerns production of nitric oxide (NO). As to the kind of experiment: Production of nitric oxide (NO) in LPS/IFN-γ-stimulated murine peritoneal cells (Griess reagent). As to conditions: Mus musculus; compound 50 μmol·l^−1, LPS 0.1 ng/ml + IFN-γ 5 ng/ml, nitrites at 24 h; LPS/IFN-γ alone = 100%; read-out: Production of NO in % of controls. The protocol:
Similar to the PGE2 assay, the production of nitric oxide (NO) was followed under conditions in vitro using murine peritoneal cells (FIG. 1). The cells (2×10^6/ml) were cultured in presence of lipopolysaccharide (LPS, 0.1 ng/ml) and recombinant mouse interferon-γ (IFN-γ, 5 ng/ml). Effects of tested pyrimidine derivatives were screened at the concentration of 50 μmol.l^−1. The compounds were added concomitantly with LPS/IFN-γ. The concentration of nitrites in cell supernatants (a measure of NO production) was evaluated spectrophotometrically, 24 h after the priming stimuli. Griess reagent was used for this purpose. The effects of pyrimidines on NO production were evaluated in percent of control values, i.e those found after the action of LPS/IFN-γ alone (100%).
A general note: The Griess reaction detects nitrite, a stable product of nitric oxide.

“And” between values parts separate entries of the source, which are not always exact repeats. Equal entries are not always repeated.

`CCCCc1c(-c2ccccc2)nc(N)nc1-c1cc(C)c(OCc2cccc(Cl)c2)c(C)c1` [Compound 1o, 5-butyl-4-(4-((3-chlorobenzyl)oxy)-3,5-dimethylphenyl)-6-phenylpyrimidin-2-amine]: in the data set on mouse peritoneal cells, the “Cell viability in % of untreated controls (LDH assay)” value (“Cell viability in %” for short) is given as 102.8 ± 0.4 (n = 8) %. Besides, the activity at 50 µM in the data set on biosynthesis of PGE2 came out at 6.5 ± 0.4%.
Turning to `CCCCc1c(-c2ccc(OCc3ccccc3)cc2)nc(N)nc1-c1cccc(OC)c1` [Compound 2a, 4-(4-(benzyloxy)phenyl)-5-butyl-6-(3-methoxyphenyl)pyrimidin-2-amine], the “Cell viability in %” value in the data set on mouse peritoneal cells was 43.1% and 43.1 ± 8.4 (n = 4) %. In addition, the activity at 50 µM in the data set with biosynthesis of PGE2 is 10 ± 2%.
Turning to `CCCCc1c(-c2ccc(Cl)cc2)nc(N)nc1-c1ccc(OCc2ccccc2)cc1` [Compound 2d, 4-(4-(benzyloxy)phenyl)-5-butyl-6-(4-chlorophenyl)pyrimidin-2-amine], in the data set on mouse peritoneal cells, the “Cell viability in %” value is on record as 96.7 ± 2.2 (n = 4) %. The activity at 50 µM in the data set on biosynthesis of PGE2 turned out to be 4.1 ± 0.7%.
Consider `CCCCc1c(-c2ccccc2)nc(N)nc1-c1ccc(OCc2ccc(Cl)cc2)cc1` [Compound 1j, 5-butyl-4-(4-((4-chlorobenzyl)oxy)phenyl)-6-phenylpyrimidin-2-amine], for which the “Cell viability in %” value with mouse peritoneal cells is 101.2 ± 0.8 (n = 8) %. In the data set on biosynthesis of PGE2, the activity at 50 µM amounted to 0.7 ± 0.5% and the IC50 – broadly, the concentration that inhibits the measured activity by half – was determined as 77 nM.
For `CCCCc1c(-c2ccccc2)nc(N)nc1-c1ccc(OC(C)C)cc1` [Compound 1b, 5-butyl-4-(4-isopropoxyphenyl)-6-phenylpyrimidin-2-amine], in the data set with mouse peritoneal cells, the “Cell viability in %” value is 71.2 ± 1.9 (n = 8) %. In addition, the activity at 50 µM in the data set with biosynthesis of PGE2 is 12.3 ± 0.5%.
Taken in the same sequence, the figures for `CCCCc1c(-c2ccccc2)nc(N)nc1-c1ccc(OCc2cccc3ccccc23)cc1` [Compound 1f, 5-butyl-4-(4-(naphthalen-1-ylmethoxy)phenyl)-6-phenylpyrimidin-2-amine] were 104.8 ± 0.4 (n = 8) % and 26.3 ± 5.3%.
Taken in the same sequence, the figures for `CCCCc1c(-c2ccccc2)nc(N)nc1-c1ccc(OCc2ccccc2)cc1C` [Compound 1k, 4-(4-(benzyloxy)-2-methylphenyl)-5-butyl-6-phenylpyrimidin-2-amine] were 103.2 ± 0.5 (n = 8) % and 51.1 ± 0.8%.
Taken in the same sequence, the figures for `Nc1nc(-c2ccccc2)cc(-c2ccc(OCc3ccccc3)c(F)c2F)n1` [Compound 1l, 4-(4-(benzyloxy)-2,3-difluorophenyl)-6-phenylpyrimidin-2-amine] were 102.6 ± 3.7 (n = 4) % and 5.5 ± 0.3%.
Regarding `CCCCc1c(-c2ccccc2)nc(N)nc1-c1cc(C)c(OCc2ccccc2Cl)c(C)c1` [Compound 1n, 5-butyl-4-(4-((2-chlorobenzyl)oxy)-3,5-dimethylphenyl)-6-phenylpyrimidin-2-amine], the “Cell viability in %” value in the data set on mouse peritoneal cells is given as 103.6 ± 0.3 (n = 8) %. For the same molecule, the activity at 50 µM in the data set with biosynthesis of PGE2 came out at 7.1 ± 1.9%.
`CCCCc1c(-c2ccccc2)nc(N)nc1-c1ccc(OCc2ccccc2)cc1` [Compound 1e, 4-(4-(benzyloxy)phenyl)-5-butyl-6-phenylpyrimidin-2-amine]: the IC50 in the data set with biosynthesis of PGE2 is 94 nM.
Regarding `COc1ccc(COc2ccc(-c3cc(-c4ccccc4)nc(N)n3)cc2)cc1` [Compound 1g], the “Cell viability in %” value in the data set with mouse peritoneal cells is given as 99.6 ± 3.0 (n = 4) %. In addition, the activity at 50 µM in the data set with biosynthesis of PGE2 stood at 8.4 ± 3%.
On to `Nc1nc(-c2ccccc2)cc(-c2ccc(OCc3ccc(Cl)cc3)cc2)n1` [Compound 1i, 4-(4-((4-chlorobenzyl)oxy)phenyl)-6-phenylpyrimidin-2-amine], for which the “Cell viability in %” value with mouse peritoneal cells is given as 102.2 ± 4.1 (n = 4) %.
With `CCCCc1c(-c2ccccc2)nc(N)nc1-c1ccc(OCc2ccc(OC)cc2)cc1` [Compound 1h, 5-butyl-4-(4-((4-methoxybenzyl)oxy)phenyl)-6-phenylpyrimidin-2-amine], the “Cell viability in %” value in the data set with mouse peritoneal cells is recorded as 104.2 ± 0.3 (n = 8) %. In the data set on biosynthesis of PGE2, the activity at 50 µM came out at 2 ± 1.5% and the IC50 worked out at 5400 nM.
For the molecule `CCCCc1c(-c2ccccc2)nc(N)nc1-c1ccc(OCc2ccccc2)c(F)c1F` [Compound 1m, 4-(4-(benzyloxy)-2,3-difluorophenyl)-5-butyl-6-phenylpyrimidin-2-amine], the “Cell viability in %” value in the data set with mouse peritoneal cells is 103.7 ± 0.4 (n = 8) %. Moreover, in the data set with biosynthesis of PGE2, the activity at 50 µM worked out at 0.03 ± 0.2% and the IC50 is 6 nM. The “Inhibition of PGE2 production (in words)” value in the data set with biosynthesis of PGE2 (compound 50 μmol·l^−1) was “completely inhibits”. Moreover, the activity at 50 µM in data set [1] worked out at 84%.
On to `CCCCc1c(-c2ccccc2)nc(N)nc1-c1ccc(OCC)cc1` [Compound 1a, 5-butyl-4-(4-ethoxyphenyl)-6-phenylpyrimidin-2-amine], for which the “Cell viability in %” value in the data set on mouse peritoneal cells is 104.6 ± 1.3 (n = 8) %. In addition, the activity at 50 µM in the data set with biosynthesis of PGE2 came to 26.3 ± 0.1%.
Take `CCCCc1c(-c2ccc(OC)cc2)nc(N)nc1-c1ccc(OCc2ccccc2)cc1` [Compound 2b, 4-(4-(benzyloxy)phenyl)-5-butyl-6-(4-methoxyphenyl)pyrimidin-2-amin]: the “Cell viability in %” value with mouse peritoneal cells is on record as 100.3 ± 1.2 (n = 4) %. In addition, in the data set on biosynthesis of PGE2, the activity at 50 µM worked out at 10.5 ± 0.1%.
Taken in the same sequence, the figures for `Nc1nc(-c2ccccc2)cc(-c2ccc(OCc3ccccc3)cc2)n1` [Compound 1d, 4-(4-(benzyloxy)phenyl)-6-phenylpyrimidin-2-amine] were 101.2 ± 0.7 (n = 4) % and 0.7 ± 0.8%.
Taken in the same sequence, the figures for `CCCCc1c(-c2ccc(OCc3ccccc3)cc2)nc(N)nc1-c1cccc(Cl)c1` [Compound 2c, 4-(4-(benzyloxy)phenyl)-5-butyl-6-(3-chlorophenyl)pyrimidin-2-amine] were 101.3 ± 2.0 (n = 4) % and 12.6 ± 1.7%.
